Here are results for 90 compounds from a melting point compilation (Tetko et al.; mined from patent text by program, amines drawn as free bases though some values may be those of a salt).

What is called melting point is the temperature, or range, at which the solid turns liquid. In turn, `CC(C)(C)CNC(=O)Oc1ccccc1` came in with a melting point of 77 to 78 °C. `CCC1CN(O)CCN1O` (stereo not given) returned a melting point of 137 °C. As for `CC1(C)C(=NO)C(=NO)C(C)(C)N1C(=O)c1ccccc1`, the figure is 235 to 240 °C; as for `CSc1nc(-c2ccc(S(C)(=O)=O)cc2)n(-c2ccc(C(C)C)cc2)c(=O)c1C#N`, 211 to 212 °C.

`O=C(O)Cc1sc(S)nc1-c1ccc(Cl)cc1` showed a melting point of 245 to 247 °C. Compound `CC(C)(O)CCCCCc1ccc(CCc2ccc(O)c(CO)c2)cc1` gave a melting point of 110 to 111 °C. The same measure for `O=C(Nc1ccc(Cl)nc1Cl)c1ccccc1O`: 179 to 186 °C; for `CCOC(=O)Nc1ccc(-c2cccs2)s1`: 76 °C; for `C=CCc1cc2c(c(CC=C)c1OC1CCCCO1)CCC(=O)N2CCC#N` (stereo not given): 93 to 94 °C. For the compound `CC(C)(C)OC(=O)NCCn1cnc2c(N)nc3ccccc3c21`, the melting point amounted to 215 °C. As for `O=C(O)c1ccc2c(c1)C=C(CCN1CCCC1)CC2`, the figure is 202 to 203 °C; as for `CNc1nnc(C(C)(C)C)c(=O)n1NC`, 170 to 171 °C. The same measure for `O=C(Nc1cccc(C(F)(F)F)c1)N1CCCCc2cc(O)ccc21`: 172 to 173 °C.

As for `Cc1ccnc(-c2ccc([N+](=O)[O-])cc2)c1`, the melting point was in the range of 145 to 147 °C. As for `Nc1nc(N)nc(-c2ccc(Sc3ccccc3)cc2)n1`, the figure is 213 to 215 °C; as for `Clc1cc2c3c(c1)C(c1ccccc1)Nc1ccccc1N3CC2` (stereo not given), 192 to 194 °C; as for `CC(C)(C)C(O)(CCC1CCCCC1)Cn1cncn1` (stereo not given), 63 to 67 °C. Regarding `C=CCOC(=O)Cc1cccc(NC(=O)NCNC(=O)c2ccccc2C(=O)c2ccccc2)c1`, the melting point was 125 to 127 °C. In the case of `O=C(O)c1cccc(-c2ccc(Cl)c3cc(Cc4cc(F)cc(Cl)c4)sc23)c1`, the melting point is 110 to 114 °C. `O=C(NCC1(c2ccccc2)CCCCC1)Nc1cccc(C(F)(F)F)c1` came in with a melting point of 147 to 151 °C.

Turning to `COc1ccc(C2=C(c3ccc(S(C)(=O)=O)cc3)C(C)(C)OC2=O)cc1`, the melting point stood at 148 °C.

`Cc1cc(NC(=O)c2cccc(CCc3cc(Nc4ccccc4)n[nH]3)c2)ccc1C(C)C` returned a melting point of 150 to 151 °C. Regarding `OCc1cccc(Oc2nn(Cc3ccccc3)c3ccccc23)n1`, the melting point fell in the range of 156 to 158 °C. The same measure for `CCCCc1ncc(CSC(CC(=O)O)C(=O)O)n1Cc1ccc(C(=O)O)cc1` (stereo not given): 140 °C; for `N#Cc1ccc(N2C(=O)NC3(CCS(=O)CC3)C2=O)cc1C(F)(F)F` (stereo not given): 260 to 277 °C. As for `c1cc(C2=NOCCS2)ccn1`, the figure is 80 to 82 °C; as for `CC(C)(C(=O)O)c1cccc(OCc2ccccc2)c1`, 114 to 116 °C. As for `CCCc1ccc(-c2nc(C)c(C(C)=NNC(=N)N)s2)cc1`, the figure is 256 to 257 °C; as for `OP(O)C(NC(c1ccccc1)c1ccccc1)c1cccs1` (stereo not given), 201 °C.

As for `COc1ccc(S(=O)(=O)N(Cc2cccnc2)c2c(C(=O)O)cc(C)cc2-c2cccs2)cc1`, the melting point turned out to be 67 °C. Turning to `CC(=Cc1c2n(c3ccncc13)CCC2)[N+](=O)[O-]`, the melting point lay within 141 to 142 °C. As for `C=CCc1cc(C)c2c(c1O)C(=O)CC2`, the figure is 41 to 45 °C. As for `CN1CCN(S(=O)(=O)CCCO)CC1`, the figure is 90 to 93 °C; as for `CCOc1ccc(CCNC(=O)/C=C/c2cccs2)cc1S(N)(=O)=O`, 55 °C. The same measure for `COc1ccc(NC(=O)C2=C(O)c3ccccc3S(=O)(=O)N2C)c(=O)cc1`: 251 to 253 °C. Compound `CCOC(=O)c1c(-c2ccccc2)nn2c1-c1ccccc1CC2` had a melting point of 84 to 85 °C.

In turn, `COc1cccc2c1cc(C)n2Cc1ccccc1` showed a melting point of 96 to 116 °C. The compound `CCC(=O)Nc1c(C(=O)c2cccc(C)c2)[nH]c2cc(Cl)ccc12` displayed a melting point of 152 to 155 °C. The same measure for `CNCC(=O)N1N=C(c2ccc(N)cc2)c2cc3c(cc2CC1C)OCO3` (stereo not given): 198 to 200 °C; for `CCCN(CCC)S(=O)(=O)c1cc(-c2csc(=Nc3cc(Cl)c(OC)cc3OC)n2C)ccc1Cl`: 173 to 175 °C; for `CCOCC1=C(C(=O)OCC)C(c2cccc(C#N)c2)C(C(=O)OCC)=C(CC)N1` (stereo not given): 125 °C. In the case of `COc1ccc(NC(=O)c2ccc(Br)o2)cc1N1CCN(C)CC1`, the melting point fell in the range of 125 to 127 °C. The same measure for `CC(Oc1cc(-c2ccccc2)nc2ccccc12)C(=O)N1CCSCC1` (stereo not given): 198 °C; for `O=C(Nc1ccc(-n2nc(C(F)(F)F)cc2C2CC2)c(F)c1)c1ccc2nn[nH]c2c1`: 235 to 237 °C; for `O=CNc1cc(-c2ccc(Cl)cc2)n[nH]1`: 151 °C.

In turn, `O=C(CCC1CCCC1)Nc1ccc(NC(=O)CCC2CCCC2)c2c1C(=O)c1ccccc1C2=O` yielded a melting point of 166 to 167 °C.

`COC(=O)c1ccc(/C=C(\C)c2ccc3c(c2)CCCCN3C)cc1`: the melting point worked out at 106 °C.

In turn, `CC(c1nc2ccccc2c(=O)n1-c1ccc(F)cc1)N(Cc1cccnc1)C(=O)Cc1ccc(C(F)(F)F)cc1` (stereo not given) came in with a melting point of 167 °C. Take `CNc1ccccc1CNC(=O)C1Cc2ccccc2N1S(=O)(=O)c1ccc(-c2cccc(C(F)(F)F)c2)cc1` (stereo not given): the melting point came to 86 °C. Regarding `CCCCc1c(CO)ccc2c(OC)cccc12`, the melting point lay within 100 to 102 °C. As for `O=C(Nc1nccs1)C1=C(O)c2ccsc2S(=O)(=O)C1`, the melting point was 215 to 216 °C. The same measure for `ClCc1ccc(OCc2csc(-c3ccccc3)n2)cc1`: 98 to 99 °C; for `CC(C)(C)OC(=O)N1[C@@H](CC2CCCCC2)[C@H](c2ccco2)OC1(C)C`: 52 to 56 °C. As for `O=C(Nc1ccc2nc(CN3CCCC3)ccc2c1)C1CCN(c2ccc(Cl)cc2)CC1`, the figure is 204 to 206 °C; as for `O=c1nc2n(c(=O)n1CCBr)CCCC2`, 64 to 66 °C; as for `COC(=O)CCCCCCCn1cc(-c2ccccc2)c(-c2ccccc2)nc1=O`, 80 to 83 °C. As for `CC(=O)NC1(c2ccc(CN3CCN(c4ncccn4)CC3)cc2)CC1`, the figure is 145 to 146 °C. For the compound `Cc1cccc(Nc2ncnc3cnc(NC4CCN(C#N)CC4)nc23)c1`, the melting point lay in the range of 178 to 181 °C.

In turn, `Brc1ccc(C2(Cn3cncn3)OCCO2)cc1` returned a melting point of 136 °C. The same measure for `O=C(NCc1ccccc1)c1ccnc(NC(=O)C2CCCC2)c1`: 55 to 57 °C. Consider `Cc1cnnc2c1C(=O)CC(c1ccccc1Cl)C2` (stereo not given), for which the melting point was 108 to 109 °C.

Regarding `COc1cc2cnc(C(=O)O)cc2cc1OC`, the melting point worked out at 228 °C. With `COc1ccc(C(N)CN)cc1` (stereo not given), the melting point is 64 °C. Consider `COc1ccc(OC)c2c1CC(O)CC2O` (stereo not given), for which the melting point was found to be 126 °C. The same measure for `COc1cc(C(C)C)c2c(c1)S(=O)(=O)N(COc1cc(C(F)(F)F)nn1-c1ccncc1)C2=O`: 161 to 162 °C; for `COc1ccc(C(=O)C2=C(O)C(=O)N(c3ccc(C)nn3)C2c2ccc(OC(F)(F)F)cc2)cc1` (stereo not given): 265 °C; for `CC(C)=CCC(C(=O)O)C(=O)N(Nc1ccccc1)c1ccccc1` (stereo not given): 166 °C.

`CNC(=O)[C@@H](NC(=O)[C@H](CC(=O)NOCc1ccccc1)CC(C)C)C(C)(C)C` came in with a melting point of 128 to 129 °C. The same measure for `CSC(SC)=C1C(=O)OC(C)(C)OC1=O`: 114 to 118 °C; for `COc1ccc(N2CCN(c3c(C)c(C)c4c(c3C)C(c3ccc(Cl)cc3)C(C)(C)O4)CC2)cc1` (stereo not given): 181 to 183 °C. The same measure for `c1ccc2c(c1)CCn1ccnc1C2=C1CCNCC1`: 287 to 289 °C; for `COc1ccnc(Cl)c1C#N`: 168 to 171 °C; for `O=C(Nc1cccc2c1C(=O)c1c-2n[nH]c1-c1ccc(C(=O)N2CCC[C@H]2CNc2ccccc2)s1)NN1CCOCC1`: above 300 °C. Compound `Cc1cn(CC(=O)N(CCNC(=O)OC(C)(C)C)CC(=O)O)c(=O)[nH]c1=O` displayed a melting point of 142 to 147 °C.

Compound `Cc1cc(C)c(Nc2nc(C)ccc2S(=O)(=O)c2ccc(F)c(Cl)c2)c(C)c1` came in with a melting point of 139 to 141 °C.

Consider `COc1cc(C)c(OC)c(C=C(C)[N+](=O)[O-])c1C`, for which the melting point lay within 48 to 49 °C. As for `OCc1cccc(-c2ncc(OCCN3CCOCC3)cn2)c1`, the figure is 101 to 102 °C; as for `Cc1c(NC(=O)c2ccc(OC[C@@H]3CCCO3)cc2)ccc2cc(CN[C@@H]3CCCC[C@H]3O)cnc12`, 142 to 143 °C; as for `COc1cc(C#Cc2cc(OC)c(OC(C)C)cc2OC(=O)CI)ccc1OC(C)C`, 127 to 128 °C. `O=C(NNC(=O)C(O)c1cccc(O)c1)c1c(O)cc(O)cc1Cl` (stereo not given) gave a melting point of 230 to 231 °C. In the case of `CC(C)c1nc(CCOC2=CCCCCCCCCCC2)n(C)c1Sc1cc(Cl)cc(Cl)c1`, the melting point lay within 96 to 102 °C. As for `COC(=O)NC(C(=O)O)c1ccc([N+](=O)[O-])cc1` (stereo not given), the figure is 152 °C. Regarding `COC(=O)c1ccc(N=C(Nc2ccc(C(=O)OC)cc2)c2ccccc2)cc1`, the melting point lay within 180 to 182 °C.

`O=C(c1cccs1)C1C(=O)N(C(=O)NS(=O)(=O)Cl)c2ccc(Cl)cc21` (stereo not given) gave a melting point of 166 to 169 °C. As for `Cc1ccc2c(c1)c(Cc1nc3c(F)c(F)cc(F)c3s1)cn2CC(=O)O`, the figure is 131 to 133 °C; as for `O=C(c1ccc(Cl)cc1)c1nccc2ccccc12`, 100 to 101 °C. As for `CC1CCC2(C)C(=CCC3C4CC(C)C(=O)C4(C)CCC32)C1` (stereo not given), the figure is 109 to 110 °C; as for `Cn1nc(-c2c(F)cccc2Cl)nc1-c1ccc(Cc2ccc(Cl)c(Cl)c2)c(Cl)c1`, 179 to 185 °C. In turn, `CC(=O)N1CCc2c(c3ccc(-n4ccc(OCc5ccc(F)cn5)cc4=O)cc3n2C)C1` came in with a melting point of 220 to 224 °C. The same measure for `O=C1NNC(c2ccc3c(c2)CC2(CCN(C4CCC4)CC2)O3)C2C=C12` (stereo not given): 189 to 191 °C.
